Reference: ChEMBL document CHEMBL1201862, “PubChem BioAssay data set” (2004)
Activity calls are given as the source filed them.

Legend:
Cytochrome P450 3A4 [1] = molecular target: T1, Cytochrome P450 3A4 (Homo sapiens, UniProt P08684); conditions: Potency
[2] = intracellular Trypanosoma cruzi inhibitors in host cells – cell-based, plate reader, cherry-pick samples, set 3, dose response (AID 651818); format: functional;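 note: compounds incubated with infected cells for about four days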
Cytochrome P450 2C9 = Cytochrome P450 2C9 (Homo sapiens, UniProt P11712)
Cytochrome P450 2C9, sequence (P11712 whole entry, the tested form may be a part): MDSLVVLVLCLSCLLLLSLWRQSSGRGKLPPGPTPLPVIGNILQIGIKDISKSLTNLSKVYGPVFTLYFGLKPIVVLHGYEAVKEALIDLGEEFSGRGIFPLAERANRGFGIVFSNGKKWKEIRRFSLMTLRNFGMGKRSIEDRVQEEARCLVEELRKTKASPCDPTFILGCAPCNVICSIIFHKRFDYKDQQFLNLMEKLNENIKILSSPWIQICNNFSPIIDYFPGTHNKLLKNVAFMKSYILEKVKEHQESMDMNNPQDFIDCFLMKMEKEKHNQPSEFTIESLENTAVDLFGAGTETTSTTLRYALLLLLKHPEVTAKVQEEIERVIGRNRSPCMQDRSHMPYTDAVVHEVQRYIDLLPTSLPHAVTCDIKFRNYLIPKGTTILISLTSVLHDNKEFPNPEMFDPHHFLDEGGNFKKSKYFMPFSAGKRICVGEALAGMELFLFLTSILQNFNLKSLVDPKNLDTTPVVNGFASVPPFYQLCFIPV

[3] = ZM109 Env clade C HIV-1 fusion inhibitors, dose response, HeLa effector, CEM target cells, luciferase, cherry-pick (AID 652058); format: functional, cell-based
[4] = inhibitors of HIV Env-driven cell fusion, dose response, cherry-pick (AID 652057); format: functional, cell-based
[5] = inhibitors of clade B AD8 Env fusion, dose response, cell-based, cherry-pick (AID 652062); format: functional;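 note: luciferase signal from cell-cell fusion driven by HIV-1 clade B AD8 Env; potency is for inhibitors of fusion seen as a drop in luminescence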
Large T antigen = Large T antigen (Simian virus 40, UniProt P03070); format: functional, Betapolyomavirus macacae;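 note: Confirmatory-stage PubChem screen for compounds that inhibit SV40 T antigen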
Large T antigen, sequence (P03070 whole entry): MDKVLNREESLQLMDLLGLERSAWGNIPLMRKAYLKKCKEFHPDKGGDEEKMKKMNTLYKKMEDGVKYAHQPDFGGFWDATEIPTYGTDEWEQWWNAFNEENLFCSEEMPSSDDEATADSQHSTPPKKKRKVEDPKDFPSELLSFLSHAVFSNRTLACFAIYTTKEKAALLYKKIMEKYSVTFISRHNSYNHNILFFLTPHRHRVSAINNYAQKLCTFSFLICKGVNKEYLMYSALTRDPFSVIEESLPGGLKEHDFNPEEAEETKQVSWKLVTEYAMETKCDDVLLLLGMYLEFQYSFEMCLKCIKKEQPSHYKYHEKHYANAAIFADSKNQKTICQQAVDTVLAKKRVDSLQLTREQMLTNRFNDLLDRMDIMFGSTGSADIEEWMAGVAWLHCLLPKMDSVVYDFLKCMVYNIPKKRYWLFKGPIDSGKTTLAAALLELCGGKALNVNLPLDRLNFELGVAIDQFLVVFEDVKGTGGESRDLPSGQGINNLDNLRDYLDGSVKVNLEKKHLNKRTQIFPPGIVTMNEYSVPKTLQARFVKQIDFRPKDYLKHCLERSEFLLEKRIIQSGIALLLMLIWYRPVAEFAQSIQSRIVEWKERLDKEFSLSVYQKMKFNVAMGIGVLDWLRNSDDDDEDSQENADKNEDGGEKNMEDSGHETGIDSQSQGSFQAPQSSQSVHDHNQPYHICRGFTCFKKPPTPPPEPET

Leucine aminopeptidase = molecular target: T2, Leucine aminopeptidase (Plasmodium falciparum 3D7, UniProt Q8IL11); test: P. falciparum M17LAP inhibitors, primary screen, biochemical, fluorogenic H-Leu-NHMec substrate, 1536-well (AID 1619); format: functional
T2 sequence (Q8IL11 whole entry): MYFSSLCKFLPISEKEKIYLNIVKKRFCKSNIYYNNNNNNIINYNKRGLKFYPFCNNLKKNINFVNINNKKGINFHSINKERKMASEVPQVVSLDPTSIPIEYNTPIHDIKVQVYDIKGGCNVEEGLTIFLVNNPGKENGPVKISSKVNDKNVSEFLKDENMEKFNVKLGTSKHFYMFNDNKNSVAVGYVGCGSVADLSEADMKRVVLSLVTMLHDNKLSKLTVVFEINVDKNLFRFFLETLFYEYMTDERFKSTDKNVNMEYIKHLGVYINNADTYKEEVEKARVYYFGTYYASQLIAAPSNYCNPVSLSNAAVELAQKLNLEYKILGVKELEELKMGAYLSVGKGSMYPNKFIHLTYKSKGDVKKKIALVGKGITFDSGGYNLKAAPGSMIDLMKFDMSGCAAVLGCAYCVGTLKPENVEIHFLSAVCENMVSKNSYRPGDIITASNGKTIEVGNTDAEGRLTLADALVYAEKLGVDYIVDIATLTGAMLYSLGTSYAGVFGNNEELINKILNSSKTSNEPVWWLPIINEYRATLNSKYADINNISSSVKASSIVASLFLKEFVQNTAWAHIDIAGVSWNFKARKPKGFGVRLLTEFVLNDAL

[6] = molecular target: T3, Rac GTPase-activating protein 1 (Homo sapiens, UniProt Q9H0H5); test: MgcRacGAP GTPase-activating activity inhibitors, confirmation, biochemical, ADP Hunter fluorescence, primary and confirmatory (AID 624330); format: functional
T3 sequence (Q9H0H5 whole entry): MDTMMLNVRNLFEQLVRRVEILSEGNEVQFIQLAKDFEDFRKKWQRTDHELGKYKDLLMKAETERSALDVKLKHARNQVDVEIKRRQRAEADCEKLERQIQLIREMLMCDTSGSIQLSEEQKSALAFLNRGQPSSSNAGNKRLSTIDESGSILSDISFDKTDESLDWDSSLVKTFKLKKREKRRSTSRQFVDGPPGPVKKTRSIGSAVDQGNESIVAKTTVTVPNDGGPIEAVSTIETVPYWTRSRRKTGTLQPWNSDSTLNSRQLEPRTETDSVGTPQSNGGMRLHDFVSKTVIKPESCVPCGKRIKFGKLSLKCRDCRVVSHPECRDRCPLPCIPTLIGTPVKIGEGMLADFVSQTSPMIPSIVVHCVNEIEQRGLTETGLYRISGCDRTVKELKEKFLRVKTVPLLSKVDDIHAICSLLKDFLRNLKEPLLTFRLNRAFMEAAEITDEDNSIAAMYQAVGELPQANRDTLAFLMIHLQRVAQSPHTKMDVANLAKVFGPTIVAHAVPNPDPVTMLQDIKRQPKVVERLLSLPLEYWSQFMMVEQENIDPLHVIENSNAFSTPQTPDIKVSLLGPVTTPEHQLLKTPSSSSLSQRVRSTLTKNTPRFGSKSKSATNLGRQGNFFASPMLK

BJ [7] = test: cells; format: functional, cell-based; conditions: Homo sapiens
BJ [8] = test: cytotoxicity toward BJ-TERT-LT-ST fibroblasts, dose response, cell-based, RAS-independent, luminescence (AID 1935); format: functional; conditions: Homo sapiens;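 note: BJ fibroblasts immortalized with TERT plus LT and ST oncogenes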
BJ [9] = test: cytotoxicity toward BJ-TERT fibroblasts, dose response, cell-based, RAS-independent, luminescence (AID 1933); format: functional; conditions: Homo sapiens
[10] = cytotoxicity toward DRD oncogenic fibroblasts, dose response, cell-based, non-viral oncogenic, luminescence (AID 1934); format: functional; conditions: Homo sapiens
P388/ADR = test: cells; format: functional; conditions: Mus musculus
SN12K1 = test: cells; format: functional; conditions: Homo sapiens
P388 = test: cells; format: functional; conditions: Mus musculus
[11] = HepG2 cell cytotoxicity, dose response, cytotoxicity control, plate reader, cherry-pick, antagonist series (AID 743416); format: functional, cell-based
[12] = MC4R antagonists, dose response, counter-screen for LGR2 antagonist project, cell-based, plate reader, cherry pick (AID 743444); format: functional;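 note: transfected HEK 293 cells stimulated with alpha-MSH peptide; potency of inhibitors of the alpha-MSH evoked signal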
[13] = A549 cell cytotoxicity, dose response, cytotoxicity control, plate reader, cherry-pick, antagonist series (AID 743412); format: functional, cell-based
[14] = LGR2 antagonists, dose response, cell-based, HEK293, CRE-luciferase reporter, cherry pick, set 2 (AID 743343); format: functional;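 note: transfected cells were stimulated with diluted bursicon conditioned medium after compound addition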
Cytochrome P450 3A4 [15] = molecular target: T1, Cytochrome P450 3A4
Cytochrome P450 2C19 = Cytochrome P450 2C19 (Homo sapiens, UniProt P33261); test: Cytochrome panel assay with activity outcomes. Panel member name: p450-cyp2c19 Compounds with AC50 equal or less than 10 uM are considered active; format: functional; conditions: read-out: AC50
Cytochrome P450 2C19, sequence (P33261 whole entry): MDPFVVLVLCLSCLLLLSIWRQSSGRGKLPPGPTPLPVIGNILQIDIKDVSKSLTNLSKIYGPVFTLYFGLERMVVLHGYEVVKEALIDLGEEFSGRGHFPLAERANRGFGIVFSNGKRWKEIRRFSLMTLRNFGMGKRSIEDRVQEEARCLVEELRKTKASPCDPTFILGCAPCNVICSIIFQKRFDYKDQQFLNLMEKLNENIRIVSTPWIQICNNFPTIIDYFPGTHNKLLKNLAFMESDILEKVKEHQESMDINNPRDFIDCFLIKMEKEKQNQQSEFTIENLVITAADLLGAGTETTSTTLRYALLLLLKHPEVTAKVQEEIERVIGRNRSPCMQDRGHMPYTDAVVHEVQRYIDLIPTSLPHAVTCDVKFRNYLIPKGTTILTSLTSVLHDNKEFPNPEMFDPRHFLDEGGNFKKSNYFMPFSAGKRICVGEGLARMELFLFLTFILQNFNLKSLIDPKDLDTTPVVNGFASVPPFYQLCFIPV

Cytochrome P450 1A2 = molecular target: T4, Cytochrome P450 1A2 (Homo sapiens, UniProt P05177);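 note: PubChem cytochrome P450 panel assay, CYP1A2 panel member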
T4 sequence (P05177 whole entry): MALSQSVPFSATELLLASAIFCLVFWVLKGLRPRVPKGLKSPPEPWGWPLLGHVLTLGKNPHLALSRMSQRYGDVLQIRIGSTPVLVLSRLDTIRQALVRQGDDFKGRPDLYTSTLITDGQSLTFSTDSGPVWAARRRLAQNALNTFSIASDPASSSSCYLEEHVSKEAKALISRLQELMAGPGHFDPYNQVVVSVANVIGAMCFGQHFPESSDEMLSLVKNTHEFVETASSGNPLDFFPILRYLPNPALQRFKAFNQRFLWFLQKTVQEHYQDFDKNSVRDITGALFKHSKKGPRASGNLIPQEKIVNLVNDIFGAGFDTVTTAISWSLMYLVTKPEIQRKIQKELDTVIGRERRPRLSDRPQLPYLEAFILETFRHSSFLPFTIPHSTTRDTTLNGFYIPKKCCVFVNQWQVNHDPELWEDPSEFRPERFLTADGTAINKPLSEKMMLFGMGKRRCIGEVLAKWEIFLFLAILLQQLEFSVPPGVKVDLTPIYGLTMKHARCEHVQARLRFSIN

T1 sequence (P08684 whole entry): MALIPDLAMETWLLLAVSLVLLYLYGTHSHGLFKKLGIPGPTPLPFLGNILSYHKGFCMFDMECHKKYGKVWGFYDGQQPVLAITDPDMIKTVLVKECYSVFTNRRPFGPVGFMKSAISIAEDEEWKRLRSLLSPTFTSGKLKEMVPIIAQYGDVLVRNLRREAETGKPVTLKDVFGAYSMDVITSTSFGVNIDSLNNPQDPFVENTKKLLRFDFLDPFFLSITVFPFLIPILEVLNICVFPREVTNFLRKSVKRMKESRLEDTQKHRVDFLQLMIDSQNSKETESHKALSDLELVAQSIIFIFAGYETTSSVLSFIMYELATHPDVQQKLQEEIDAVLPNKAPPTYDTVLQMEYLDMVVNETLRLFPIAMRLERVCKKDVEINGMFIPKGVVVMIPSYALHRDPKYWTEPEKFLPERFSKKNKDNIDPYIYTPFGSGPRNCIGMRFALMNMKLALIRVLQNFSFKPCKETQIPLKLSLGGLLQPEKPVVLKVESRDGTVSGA

## CCCn1c(C)nc2c(NCCN3CCOCC3)nc(C)nc21
Cytochrome P450 3A4 [1]
  AC50: 20 µM (inconclusive)

## COc1ccc(S(=O)(=O)Nc2ccc3c(c2)CC(=O)N([C@H](C)CO)C[C@@H](C)[C@@H](CN(C)S(=O)(=O)c2cccs2)O3)cc1
[2]
  AC50: 6.01 µM (active)

## COc1ccc(NC(=O)Nc2ccc3c(c2)CC(=O)N([C@@H](C)CO)C[C@@H](C)[C@@H](CN(C)Cc2ccc(C(F)(F)F)cc2)O3)cc1
[2]
  AC50: 4.62 µM (active)

## C[C@@H]1CN([C@@H](C)CO)C(=O)c2cccc(NC(=O)c3ccc(-c4nccs4)cc3)c2O[C@H]1CN(C)Cc1ccc(Oc2ccccc2)cc1
[2]
  AC50: 3.03 µM (active)

## CCNc1ncc2nc(-c3ccc(OC)cc3)c(=O)n(Cc3ccc(F)cc3)c2n1
Cytochrome P450 2C9
  AC50: inconclusive

## CC(C)CC#Cc1ccc2c(c1)O[C@@H](CN(C)S(=O)(=O)c1cccc(F)c1)[C@@H](C)CN([C@H](C)CO)S2(=O)=O
[3]
  AC50: 0.919 µM (active)
[4]
  AC50: 5.91 µM (active)
[5]
  AC50: 26.5 µM (active)

## COc1ccc(NC(=O)Nc2ccc3c(c2)C(=O)N([C@@H](C)CO)C[C@H](C)[C@H](CN(C)S(=O)(=O)c2ccc(OC)cc2)O3)cc1
[3]
  AC50: 4.38 µM (active)
[4]
  AC50: 4.26 µM (active)
[5]
  AC50: 17.5 µM (active)

## Cc1ccc(S(=O)(=O)N(C)C[C@H]2Oc3c(NC(=O)Nc4ccc5c(c4)OCO5)cccc3C(=O)N([C@H](C)CO)C[C@@H]2C)cc1
[2]
  AC50: 6.64 µM (active)

## Cc1cccc(C(=O)Nc2ccc(O)cc2)c1
Large T antigen
  IC50: 10.7 µM (active)

## C[C@H]1CN([C@@H](C)CO)C(=O)c2cccc(NC(=O)CCCCCC(=O)Nc3ccccc3N)c2O[C@@H]1CN(C)Cc1ccc2c(c1)OCO2
[2]
  AC50: 1.72 µM (active)

## CCSc1nnc(NC(=O)C2(C)Cc3ccccc3C(=O)O2)s1 (stereo not drawn)
Leucine aminopeptidase
  IC50: 33.6 µM (active)

## COc1cccc(Cn2c(=O)c(-c3cc(F)cc(F)c3)nc3cnc(N4CCOCC4)nc32)c1
Cytochrome P450 2C9
  AC50: inconclusive

## C/N=c1\scc(C)n1/N=C/c1cc(Br)c(O)c(OC)c1
Large T antigen
  IC50: 5.8 µM (active)
[6]
  IC50: 14.4 µM (active)

## CC1(C)OC2CC3C4CC(F)C5=CC(=O)C=CC5(C)C4C(O)CC3(C)[C@]2(C(=O)CO)O1 (stereo partly drawn)
Cytochrome P450 3A4 [1]
  AC50: 39.8 µM (inconclusive)

## Cc1ccc2cc(CN(Cc3ccco3)C(=O)c3cccs3)c(O)nc2c1
BJ [7]
  EC50: 74.4 µM (active)
BJ [8]
  EC50: 5.07 µM (active)
BJ [9]
  EC50: 13 µM (active)
[10]
  EC50: 4.87 µM (active)

## Cc1cc(/N=N/c2ccc(/N=N/c3c(O)c(S(=O)(=O)O)cc4cc(S(=O)(=O)O)ccc34)cc2C)ccc1/N=N/c1ccc2cc(S(=O)(=O)O)cc(S(=O)(=O)O)c2c1
P388/ADR
  GI50: 26.5 µM (inactive)
SN12K1
  GI50: > 100 µM (inactive)
P388
  GI50: 42.8 µM (inactive)

## Cc1ccc(Nc2nc(-c3cccnc3)nc3ccccc23)cc1
BJ [7]
  EC50: 20.3 µM (active)
BJ [8]
  EC50: > 150 µM (inconclusive)
BJ [9]
  EC50: 28.5 µM (active)
[10]
  EC50: 15.8 µM (active)

## COc1ccc(-c2cc3nc(NCC4CCCCC4)n(C)c(=O)c3s2)cc1OC
[11]
  AC50: > 52 µM (inactive)
[12]
  AC50: 2.51 µM (active)
[13]
  AC50: 45.8 µM (active)
[14]
  AC50: 12.8 µM (active)

## CCOC(=O)c1ccc(NC(=O)CN2C(=O)CSCC2=O)cc1
Leucine aminopeptidase
  IC50: 41.8 µM (active)

## CCS(=O)(=O)Nc1ccc(Nc2c3ccccc3nc3ccccc23)c(OC)c1
P388/ADR
  GI50: 0.0955 µM (active)
SN12K1
  GI50: 0.51 µM (active)
P388
  GI50: < 0.01 µM (active)

## CC12CCC(C(=O)Nc3ccccc3Br)(C/C1=N\O)C2(C)C (stereo not drawn)
Cytochrome P450 3A4 [15]
  AC50: 20 µM (inconclusive)
Cytochrome P450 2C19
  AC50: 31.6 µM (inconclusive)
Cytochrome P450 2C9
  AC50: inconclusive

## COC(=O)/C(=C1\OC(=O)C(c2ccccc2)C1=O)c1ccccc1 (stereo not drawn)
Cytochrome P450 3A4 [1]
  AC50: 39.8 µM (inconclusive)

## C[C@@H]1CN([C@@H](C)CO)C(=O)Cc2cc(NS(=O)(=O)c3ccc(F)cc3)ccc2O[C@@H]1CN(C)Cc1ccc(Oc2ccccc2)cc1
[2]
  AC50: 3.56 µM (active)

## CC1(C)C(O)CC(=O)[C@]2(C)C1CC(=O)[C@]1(C)C2CC[C@@]2(C)C(c3ccoc3)OC(=O)C3O[C@@]321 (stereo partly drawn)
Cytochrome P450 3A4 [1]
  AC50: 10 µM (inconclusive)

## CCN1C[C@@]2(COC(=O)c3ccccc3N3C(=O)CC(C)C3=O)CC[C@H](OC)[C@]34C5C[C@H]6[C@@H](OC)C[C@@](O)(C5[C@H]6OC)C(O)(C13)[C@@H](OC)C24 (stereo partly drawn)
Cytochrome P450 3A4 [1]
  AC50: 20 µM (inconclusive)

## CC[C@H]1CN2CCc3cc(OC)c(OC)cc3[C@@H]2C[C@@H]1C[C@H]1NCCc2c1[nH]c1ccc(O)cc21 [TUBULOSINE]
P388/ADR
  GI50: 0.493 µM (active)
SN12K1
  GI50: < 0.01 µM (active)
P388
  GI50: < 0.01 µM (active)

## CCn1c(SCC(=O)c2ccc(OC)cc2)nnc1C1CC1
Cytochrome P450 1A2
  AC50: 17.8 µM (inconclusive)
Cytochrome P450 2C9
  AC50: inconclusive

## CCC(=O)OC1CCC2C3CCc4cc(O)ccc4C3CC[C@]12C (stereo partly drawn)
Cytochrome P450 3A4 [1]
  AC50: 39.8 µM (inconclusive)

## ClCCN(CC#CCCCC#CCN(CCCl)CCCl)CCCl
P388/ADR
  GI50: 2.44 µM (inactive)
SN12K1
  GI50: 10 µM (inactive)
P388
  GI50: 0.736 µM (active)

## N#CCCn1c(=O)c(-c2ccc(Cl)cc2)nc2cnc(Oc3cccc(Cl)c3)nc21
Cytochrome P450 2C9
  AC50: inconclusive

## Cc1nc(NC(=O)c2ccccc2)sc1-c1csc(Nc2ccc(F)cc2)n1
Cytochrome P450 1A2
  AC50: 4.47 µM (inconclusive)
Cytochrome P450 2C19
  AC50: 0.355 µM (inconclusive)
Cytochrome P450 2C9
  AC50: inconclusive
